Consider 14 compounds from article PMC10253812, “Novel 2-alkythio-4-chloro-N-[imino(heteroaryl)methyl]benzenesulfonamide Derivatives: Synthesis, Molecular Structure, Anticancer Activity and Metabolic Stability” (International Journal of Molecular Sciences, 2023).

Where only a bound is given, the exact number is not on record here.

For assay [1], the system named is HeLa, HCT-116 and MCF-7 cell lines. As to the kind of experiment: MTT screening, statements pooled over the three cancer cell lines. In kind it is cell-based. To be noted: Homo sapiens, 72 h, HCT-116, MCF-7, read-out: IC50 (low potency, not shown in Table 1). The protocol:
(§1) Compounds 8–24 were evaluated in vitro for their cytotoxic effect against three human cancer cell lines, i.e., HeLa (cervical cancer), HCT-116 (colon cancer) and MCF-7 (breast cancer), and the non-tumor cell line HaCaT using the MTT assay after 72 h of incubation. The results of tests are presented in Table 1 as IC50, indicating the concentration required for 50% inhibition of cell viability. Compounds 8–10 and 14–18 are not presented in the Table 1 because of their low potency (IC50 > 100 µM).
(§2) All chemicals, if not stated otherwise, were obtained from Sigma-Aldrich (St. Louis, MO, USA). The MCF-7, HeLa and HaCaT cell lines were purchased from Cell Lines Services (Eppelheim, Germany), and the HCT-116 cell line was purchased from ATCC (ATCC-No: CCL-247). The cells were cultured in Dulbecco’s modified Eagle’s medium (DMEM) supplemented with 10% fetal bovine serum, 2 mM glutamine, 100 units/mL of penicillin and 100 μg/mL of streptomycin. The cultures were maintained in a humidified atmosphere with 5% CO2 at 37 °C, in an incubator (Heraeus, HeraCell).
(§3) Cytotoxicity assay: Cell viability was determined using the MTT (3-(4,5-dimethylthiazol-2-yl)-2,5diphenyltetrazoliumbromide) assay. The cells were seeded in 96-well plates at a density of 5 × 10^3 cells/well and treated for 24, 48 and 72 h with the examined compounds in the concentration range 1–100 μM. Following treatment, MTT (0.5 mg/mL) was added to the medium, and the cells were further incubated for 2 h at 37 °C. the cells were lysed with DMSO, and the absorbance of the formazan solution was measured at 550 nm with a plate reader (Victor, 1420 multilabel counter). The experiment was performed in triplicate. The values are expressed as the mean ± SD of at least three independent experiments.

In assay [2] the test system is MCF-7 (breast cancer) cell line. As to the kind of experiment: MTT cell viability assay, MCF-7. To be noted: MTT assay, 72 h of incubation. It is filed as cell-based, human. The protocol: as §1, §2, §3
The subject of assay [3] is HeLa (cervical cancer) cell line. As to the kind of experiment: MTT cell viability assay, HeLa. In kind it is cell-based, human. As to conditions: Homo sapiens, HeLa; MTT assay, 72 h of incubation; read-out: IC50 HeLa. On the procedure: as §1
The cytotoxic activity of 11–13 was determined in a time-dependent manner with the MTT assay (Figure 3).
HeLa cells were treated with 11, 12 and 13 in the concentration range of 0–20 µM. […] After 48 h, the IC50 values for compounds 11, 12 and 13 were 6, 7 and 6 µM, respectively.
as §2, §3

Assay [4] concerns HCT-116 (colon cancer) cell line. Briefly: MTT cell viability assay, HCT-116. In kind it is cell-based. As to conditions: Homo sapiens, 72 h of incubation. On the procedure:
as §1, §2, §3
(In general: Tetrazolium dyes change colour on reduction, which living cells bring about.)

The test system of assay [5] is HaCaT (immortalized human keratinocytes). As to the kind of experiment: MTT cell viability assay, non-tumor HaCaT. To be noted: 72 h of incubation, non-tumor cell line. It is filed as cell-based. On the procedure: as §1
We also performed an assay on the non-tumor cell line HaCaT (immortalized human keratinocytes) to assess if the effect of 11–13 was selective toward HeLa cells or resulted from a more general toxic activity.
as §2, §3

The IC50 is the midpoint of a concentration-inhibition curve. With `Cc1cc(S(=O)(=O)NC(=N)n2ccn(C)c2=S)c(SCc2ccccc2)cc1Cl` [Compound 8, 2-Benzylthio-4-chloro-N-[imino(3-methyl-2-thioxo-2,3-dihydro-1H-imidazol-1-yl)methyl]-5-methylbenzenesulfonamide], the IC50 in assay [1] was greater than 100 µM. Regarding `Cc1cc(S(=O)(=O)NC(=N)n2c(=S)[nH]c3ccccc32)c(SCc2cccc(C(F)(F)F)c2)cc1Cl` [Compound 20, 4-Chloro-N-[imino-(2-thioxo-2,3-dihydro-1H-benzo[d]imidazol-1-yl)methyl]-5-methyl-2-(3-trifluoromethylbenzylthio)benzenesulfonamide], the IC50 worked out at 49 ± 1 µM in assay [2] (Homo sapiens, MCF7); 43 ± 1 µM in assay [3]; 17 ± 0.5 µM in assay [4]. Take `Cc1cc(S(=O)(=O)NC(=N)n2ccn(C)c2=S)c(SCc2ccc(C(F)(F)F)cc2)cc1Cl` [Compound 10, 4-Chloro-N-[imino(3-methyl-2-thioxo-2,3-dihydro-1H-imidazol-1-yl)methyl]-5-methyl-2-(4-trifluoromethylbenzylthio)benzenesulfonamide]: the IC50 in assay [1] was greater than 100 µM. Consider `Cc1cc(S(=O)(=O)NC(=N)n2c(=S)[nH]c3ccccc32)c(SCc2ccc(C(F)(F)F)cc2)cc1Cl` [Compound 21, 4-Chloro-N-[imino-(2-thioxo-2,3-dihydro-1H-benzo[d]imidazol-1-yl)methyl]-5-methyl-2-(4-trifluoromethylbenzylthio)benzenesulfonamide], for which the IC50 in assay [2] (Homo sapiens, MCF7) turned out to be 62 ± 3 µM; in assay [3] it was 52 ± 1 µM; in assay [4], 23 ± 0.2 µM. For `Cc1cc(S(=O)(=O)NC(=N)n2c(=S)[nH]c3ccccc32)c(SCc2cc3c(cc2Cl)OCO3)cc1Cl` [Compound 23, 4-Chloro-2-(6-chlorobenzo [1,3]dioxol-5-ylmethylthio)-N-[imino-(2-thioxo-2,3-dihydro-1H-benzo[d]imidazol-1-yl)methyl]-5-methylbenzenesulfonamide], in that order: 50 ± 2 µM, 57 ± 1 µM and 34 ± 0.3 µM.

On to `Cc1cc(S(=O)(=O)NC(=N)n2ccn(C)c2=S)c(SCc2cccc(C(F)(F)F)c2)cc1Cl` [Compound 9, 4-Chloro-N-[imino(3-methyl-2-thioxo-2,3-dihydro-1H-imidazol-1-yl)methyl]-5-methyl-2-(3-trifluoromethylbenzylthio)benzenesulfonamide], for which the IC50 in assay [1] is greater than 100 µM.

For `Cc1cc(S(=O)(=O)NC(=N)n2ncn(C)c2=S)c(SCc2ccc(Cl)cc2)cc1Cl` [Compound 18, 4-Chloro-2-(4-chlorobenzylthio)-N-[imino(4-methyl-5-thioxo-4,5-dihydro-1H-1,2,4-triazol-1-yl)methyl]5-methylbenzenesulfonamide], the IC50 in assay [1] is greater than 100 µM.

With `Cc1cc(S(=O)(=O)NC(=N)n2ncn(C)c2=S)c(SCc2ccccc2)cc1Cl` [Compound 15, 2-Benzylthio-4-chloro-5-methyl-N-[imino(4-methyl-5-thioxo-4,5-dihydro-1H-1,2,4-triazol-1-yl)methyl]benzenesulfonamide], the IC50 in assay [1] is greater than 100 µM. On to `N.N.[Cl][Pt][Cl]` [Cisplatin, reference compound], for which the IC50 in assay [2] is 3 ± 0.1 µM; in assay [5] it was 7.7 ± 0.2 µM. With `Cc1cc(S(=O)(=O)NC(=N)n2c(=S)[nH]c3ccccc32)c(SCc2ccccc2)cc1Cl` [Compound 19, 2-Benzylthio-4-chloro-5-methyl-N-[imino-(2-thioxo-2,3-dihydro-1H-benzo[d]imidazol-1-yl)methyl]benzenesulfonamide], the IC50 in assay [2] (Homo sapiens, MCF7) was 82 ± 4 µM; in assay [3], 60 ± 3 µM; in assay [4] it was 36 ± 1 µM. Regarding `Cc1cc(S(=O)(=O)NC(=N)n2c(=S)[nH]c3ccccc32)c(SCc2ccc(Cl)cc2)cc1Cl` [Compound 22, 4-Chloro-2-(4-chlorobenzylthio)-N-[imino-(2-thioxo-2,3-dihydro-1H-benzo[d]imidazol-1-yl)methyl]-5-methylbenzenesulfonamide], the IC50 in assay [2] (Homo sapiens, MCF7) turned out to be 73 ± 2 µM; in assay [3] it was 49 ± 2 µM; in assay [4] it was 27 ± 0.5 µM.

`Cc1cc(S(=O)(=O)NC(=N)n2c(=S)[nH]c3ccccc32)c(SCc2cccc3ccccc23)cc1Cl` [Compound 24, 4-Chloro-N-[imino-(2-thioxo-2,3-dihydro-1H-benzo[d]imidazol-1-yl)methyl]-5-methyl-2-(naphthalen-1-ylmethylthio)benzenesulfonamide]: the IC50 stood at 56 ± 2 µM in assay [2] (Homo sapiens, MCF7); 33 ± 1 µM in assay [3]; 21 ± 0.6 µM in assay [4]. `Cc1cc(S(=O)(=O)NC(=N)n2ncn(C)c2=S)c(SCc2ccc(C(F)(F)F)cc2)cc1Cl` [Compound 17, 4-Chloro-N-[imino(4-methyl-5-thioxo-4,5-dihydro-1H-1,2,4-triazol-1-yl)methyl]-5-methyl-2-(4-trifluoromethylbenzylthio)benzenesulfonamide]: the IC50 in assay [1] was greater than 100 µM. Turning to `CCOC(=O)CSc1cc(Cl)c(C)cc1S(=O)(=O)NC(=N)n1ccn(C)c1=S` [Compound 14, 4-Chloro-2-ethoxycarbonylmethylthio-N-[imino(3-methyl-2-thioxo-2,3-dihydro-1H-imidazol-1-yl)methyl]-5-methylbenzenesulfonamide], the concentration for half-maximal inhibition (IC50) in assay [1] was greater than 100 µM.
